Experimental data reported in ChEMBL document CHEMBL1152038, “Quaternised renzapride as a potent and selective 5-HT4 receptor agonist” (Bioorg Med Chem Lett, 1993).

How the values were obtained:
[1] = molecular target: 5-hydroxytryptamine receptor 4 (Rattus norvegicus, UniProt Q62758); test: Tested for its agonist potency against the 5-hydroxytryptamine 4 receptor located in the rat esophageal tunica muscularis mucosae; format: functional, tissue-based, Muscularis mucosa
[2] = molecular target: T1, Serotonin 3 (5-HT3) receptor (Rattus norvegicus, UniProt P35563+Q9JJ16); test: Tested for its binding affinity by measuring its ability to displace [3H]granisetron from 5-hydroxytryptamine 3 receptor in rat cortex
T1 sequence (P35563 whole entry): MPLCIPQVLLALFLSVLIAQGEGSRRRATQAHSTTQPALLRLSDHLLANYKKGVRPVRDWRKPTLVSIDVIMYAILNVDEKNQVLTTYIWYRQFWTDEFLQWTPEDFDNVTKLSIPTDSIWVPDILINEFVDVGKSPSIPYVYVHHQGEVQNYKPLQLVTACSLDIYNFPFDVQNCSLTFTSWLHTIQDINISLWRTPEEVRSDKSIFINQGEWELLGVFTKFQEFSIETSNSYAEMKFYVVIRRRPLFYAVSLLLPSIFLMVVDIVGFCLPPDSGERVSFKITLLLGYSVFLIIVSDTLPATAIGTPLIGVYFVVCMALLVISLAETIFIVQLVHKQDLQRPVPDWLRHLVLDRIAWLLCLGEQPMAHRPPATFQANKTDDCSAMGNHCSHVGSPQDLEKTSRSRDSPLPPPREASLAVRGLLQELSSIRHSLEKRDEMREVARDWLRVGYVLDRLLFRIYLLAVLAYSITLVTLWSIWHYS
T1 sequence (Q9JJ16 whole entry): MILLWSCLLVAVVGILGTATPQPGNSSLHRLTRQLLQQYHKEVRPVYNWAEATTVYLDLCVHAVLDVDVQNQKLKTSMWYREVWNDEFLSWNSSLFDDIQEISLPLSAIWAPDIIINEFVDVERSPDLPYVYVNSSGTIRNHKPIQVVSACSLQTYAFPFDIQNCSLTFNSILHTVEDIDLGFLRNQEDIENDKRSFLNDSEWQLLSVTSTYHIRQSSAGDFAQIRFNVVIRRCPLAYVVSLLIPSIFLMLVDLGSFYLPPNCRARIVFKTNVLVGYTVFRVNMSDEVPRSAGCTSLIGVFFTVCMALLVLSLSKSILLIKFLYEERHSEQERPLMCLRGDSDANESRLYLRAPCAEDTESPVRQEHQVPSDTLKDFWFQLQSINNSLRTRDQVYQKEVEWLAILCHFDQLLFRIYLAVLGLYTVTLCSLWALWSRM

[3] = molecular target: 5-hydroxytryptamine receptor 4 (Rattus norvegicus) (UniProt Q62758); test: Tested for its efficacy against the 5-hydroxytryptamine 4 receptor located in the rat esophageal tunica muscularis mucosae; format: tissue-based; details: Muscularis mucosa
5-hydroxytryptamine receptor 4 (Rattus norvegicus), sequence (Q62758 whole entry): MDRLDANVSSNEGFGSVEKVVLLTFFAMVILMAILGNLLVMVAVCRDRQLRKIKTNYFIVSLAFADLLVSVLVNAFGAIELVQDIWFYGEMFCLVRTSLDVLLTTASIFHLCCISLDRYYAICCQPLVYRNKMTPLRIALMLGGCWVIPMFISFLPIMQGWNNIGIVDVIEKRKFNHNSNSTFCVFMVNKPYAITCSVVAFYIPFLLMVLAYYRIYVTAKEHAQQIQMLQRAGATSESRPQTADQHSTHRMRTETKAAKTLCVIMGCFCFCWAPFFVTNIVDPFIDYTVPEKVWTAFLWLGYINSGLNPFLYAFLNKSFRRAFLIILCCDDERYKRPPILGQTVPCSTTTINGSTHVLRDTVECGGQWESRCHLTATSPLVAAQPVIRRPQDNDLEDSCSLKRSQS

5-hydroxytryptamine receptor 4, sequence (Q62758 whole entry): as above

Compound	EC50 [1] [nM]	Ki [2] [nM]	Intrinsic activity [3]
COc1cc(N)c(Cl)cc1C(=O)NC1CCN2CCCC1C2 (centres undefined) [RENZAPRIDE]	63.1	5.01	0.8
CC(C)n1c(=O)n(C(=O)NC2CC3CCC(C2)N3C)c2ccccc21 (centres undefined)	12.6	1.58	0.9
CCn1c(=O)n(C(=O)NC2CC3CCC(C2)N3C)c2ccccc21 (centres undefined)	10	3.98	0.7
CCN(CC)CCNC(=O)c1cc(Cl)c(N)cc1OC [METOCLOPRAMIDE]		158	0.8
CCCC[N+]12CCCC(C1)C(NC(=O)c1cc(Cl)c(N)cc1OC)CC2 (centres undefined)	9.55	126	0.79
